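48-hour exposure; five concentrations; linearly interpolated endpoints. TGI marks complete inhibition of growth.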
Assays:
Experiment in all cases: NCI-60 cell line screen, 48 h
SF-539 CNS = test system: SF-539 CNS
HS 578T breast = test system: HS 578T breast
SF-295 CNS = test system: SF-295 CNS
IGROV1 ovarian = test system: IGROV1 ovarian
OVCAR-8 ovarian = test system: OVCAR-8 ovarian
SN12C renal = test system: SN12C renal
CAKI-1 renal = test system: CAKI-1 renal
SR leukemia = test system: SR leukemia
786-0 renal = test system: 786-0 renal
MCF7 breast = test system: MCF7 breast
ACHN renal = test system: ACHN renal
M14 melanoma = test system: M14 melanoma
OVCAR-4 ovarian = test system: OVCAR-4 ovarian
T-47D breast = test system: T-47D breast
CCRF-CEM leukemia = test system: CCRF-CEM leukemia
TK-10 renal = test system: TK-10 renal
KM12 colon = test system: KM12 colon
HOP-62 NSCLC = test system: HOP-62 NSCLC
SK-MEL-28 melanoma = test system: SK-MEL-28 melanoma
SK-MEL-5 melanoma = test system: SK-MEL-5 melanoma
HCT-15 colon = test system: HCT-15 colon
HCT-116 colon = test system: HCT-116 colon
COLO 205 colon = test system: COLO 205 colon
EKVX NSCLC = test system: EKVX NSCLC
SNB-19 CNS = test system: SNB-19 CNS
NCI/ADR-RES ovarian = test system: NCI/ADR-RES ovarian
UO-31 renal = test system: UO-31 renal
A498 renal = test system: A498 renal
HOP-92 NSCLC = test system: HOP-92 NSCLC
SF-268 CNS = test system: SF-268 CNS
RXF 393 renal = test system: RXF 393 renal
NCI-H460 lung = test system: NCI-H460 lung
SNB-75 CNS = test system: SNB-75 CNS
PC-3 prostate = test system: PC-3 prostate
MALME-3M melanoma = test system: MALME-3M melanoma
BT-549 breast = test system: BT-549 breast
UACC-257 melanoma = test system: UACC-257 melanoma
NCI-H226 lung = test system: NCI-H226 lung
MDA-MB-435 = test system: MDA-MB-435
LOX IMVI melanoma = test system: LOX IMVI melanoma
HCC-2998 colon = test system: HCC-2998 colon
K-562 leukemia = test system: K-562 leukemia
OVCAR-5 ovarian = test system: OVCAR-5 ovarian
UACC-62 melanoma = test system: UACC-62 melanoma
MDA-MB-231 breast = test system: MDA-MB-231 breast
RPMI-8226 leukemia = test system: RPMI-8226 leukemia
SK-OV-3 ovarian = test system: SK-OV-3 ovarian
OVCAR-3 ovarian = test system: OVCAR-3 ovarian
SK-MEL-2 melanoma = test system: SK-MEL-2 melanoma
SW-620 colon = test system: SW-620 colon
A549 NSCLC = test system: A549 NSCLC
NCI-H23 lung = test system: NCI-H23 lung
DU-145 prostate = test system: DU-145 prostate
MDA-N = test system: MDA-N
HL-60(TB) leukemia = test system: HL-60(TB) leukemia
U251 CNS = test system: U251 CNS
HT29 colon = test system: HT29 colon
MOLT-4 leukemia = test system: MOLT-4 leukemia
NCI-H522 lung = test system: NCI-H522 lung

## CCOC(=O)c1c2ccccc2n2c(=O)n(-c3ccc(OC)cc3)nnc12
SF-539 CNS
  TGI: 45.6 µM
HS 578T breast
  TGI: 55.9 µM
SF-295 CNS
  TGI: > 62.5 µM
IGROV1 ovarian
  TGI: > 100 µM
OVCAR-8 ovarian
  TGI: 97.1 µM
SN12C renal
  TGI: > 100 µM
CAKI-1 renal
  TGI: > 79.9 µM
SR leukemia
  TGI: > 100 µM
786-0 renal
  TGI: 51.1 µM
MCF7 breast
  TGI: > 67.9 µM
ACHN renal
  TGI: > 100 µM
M14 melanoma
  TGI: > 100 µM
OVCAR-4 ovarian
  TGI: > 64 µM
T-47D breast
  TGI: 92.7 µM
CCRF-CEM leukemia
  TGI: > 62.4 µM
TK-10 renal
  TGI: > 84.5 µM
KM12 colon
  TGI: > 100 µM
HOP-62 NSCLC
  TGI: 63 µM
SK-MEL-28 melanoma
  TGI: > 100 µM
SK-MEL-5 melanoma
  TGI: > 100 µM
HCT-15 colon
  TGI: > 100 µM
HCT-116 colon
  TGI: > 100 µM
COLO 205 colon
  TGI: > 100 µM
EKVX NSCLC
  TGI: > 100 µM
SNB-19 CNS
  TGI: > 79.9 µM
NCI/ADR-RES ovarian
  TGI: > 100 µM
UO-31 renal
  TGI: > 100 µM
A498 renal
  TGI: > 100 µM
HOP-92 NSCLC
  TGI: > 65.7 µM
SF-268 CNS
  TGI: 45.7 µM
RXF 393 renal
  TGI: 43.5 µM
NCI-H460 lung
  TGI: > 100 µM
SNB-75 CNS
  TGI: 35.9 µM
PC-3 prostate
  TGI: > 66.1 µM
MALME-3M melanoma
  TGI: > 100 µM
BT-549 breast
  TGI: > 80.7 µM
UACC-257 melanoma
  TGI: > 100 µM
NCI-H226 lung
  TGI: 87.9 µM
MDA-MB-435
  TGI: > 100 µM
LOX IMVI melanoma
  TGI: > 100 µM
HCC-2998 colon
  TGI: > 100 µM
K-562 leukemia
  TGI: > 100 µM
OVCAR-5 ovarian
  TGI: > 100 µM
UACC-62 melanoma
  TGI: 99.6 µM
MDA-MB-231 breast
  TGI: > 100 µM
RPMI-8226 leukemia
  TGI: > 91.1 µM
SK-OV-3 ovarian
  TGI: > 63.9 µM
OVCAR-3 ovarian
  TGI: > 91.1 µM
SK-MEL-2 melanoma
  TGI: > 100 µM
SW-620 colon
  TGI: > 100 µM
A549 NSCLC
  TGI: > 100 µM
NCI-H23 lung
  TGI: > 81.5 µM
DU-145 prostate
  TGI: > 100 µM
MDA-N
  TGI: > 100 µM
HL-60(TB) leukemia
  TGI: > 100 µM
U251 CNS
  TGI: > 31.6 µM

## CC(=O)NC1C(OCc2ccccc2)OC(CO)C(O)C1OCC(=O)NC(C(=O)NC(CCC(=O)NCCCCCC(=O)Nc1ccc2c(c1)CN1C(=O)c3ccccc3C1=N2)C(N)=O)C(C)C (stereo unspecified)
SF-539 CNS
  TGI: 37.7 µM
HS 578T breast
  TGI: 51 µM
SF-295 CNS
  TGI: 60.8 µM
IGROV1 ovarian
  TGI: 50.4 µM
OVCAR-8 ovarian
  TGI: 79.5 µM
SN12C renal
  TGI: > 100 µM
CAKI-1 renal
  TGI: > 100 µM
SR leukemia
  TGI: > 100 µM
786-0 renal
  TGI: 38 µM
MCF7 breast
  TGI: 56.7 µM
ACHN renal
  TGI: > 100 µM
M14 melanoma
  TGI: > 100 µM
OVCAR-4 ovarian
  TGI: 53 µM
T-47D breast
  TGI: 68 µM
CCRF-CEM leukemia
  TGI: > 100 µM
TK-10 renal
  TGI: 39.6 µM
KM12 colon
  TGI: 48.7 µM
HOP-62 NSCLC
  TGI: 40.8 µM
SK-MEL-28 melanoma
  TGI: 39 µM
SK-MEL-5 melanoma
  TGI: 49.6 µM
HT29 colon
  TGI: > 100 µM
HCT-15 colon
  TGI: > 100 µM
HCT-116 colon
  TGI: > 100 µM
COLO 205 colon
  TGI: > 100 µM
EKVX NSCLC
  TGI: > 100 µM
SNB-19 CNS
  TGI: 47.7 µM
NCI/ADR-RES ovarian
  TGI: > 100 µM
UO-31 renal
  TGI: > 100 µM
A498 renal
  TGI: 73.7 µM
HOP-92 NSCLC
  TGI: > 100 µM
SF-268 CNS
  TGI: 41.8 µM
RXF 393 renal
  TGI: 45 µM
NCI-H460 lung
  TGI: 51.2 µM
SNB-75 CNS
  TGI: 41.1 µM
PC-3 prostate
  TGI: 70.8 µM
MALME-3M melanoma
  TGI: 46.5 µM
BT-549 breast
  TGI: 48.1 µM
UACC-257 melanoma
  TGI: 66.7 µM
MDA-MB-435
  TGI: > 100 µM
LOX IMVI melanoma
  TGI: > 100 µM
HCC-2998 colon
  TGI: > 100 µM
K-562 leukemia
  TGI: > 100 µM
OVCAR-5 ovarian
  TGI: > 100 µM
UACC-62 melanoma
  TGI: 40.9 µM
MDA-MB-231 breast
  TGI: 63.3 µM
RPMI-8226 leukemia
  TGI: > 100 µM
SK-OV-3 ovarian
  TGI: 44.6 µM
OVCAR-3 ovarian
  TGI: > 100 µM
SK-MEL-2 melanoma
  TGI: 64.8 µM
SW-620 colon
  TGI: > 100 µM
A549 NSCLC
  TGI: > 100 µM
NCI-H23 lung
  TGI: > 100 µM
DU-145 prostate
  TGI: > 100 µM
MDA-N
  TGI: > 100 µM
HL-60(TB) leukemia
  TGI: > 100 µM
MOLT-4 leukemia
  TGI: > 100 µM
U251 CNS
  TGI: 39.2 µM

## Cc1cc(-c2nc3cc(F)ccc3s2)ccc1N
SF-539 CNS
  TGI: 46.1 µM
HS 578T breast
  TGI: > 82 µM
NCI-H522 lung
  TGI: > 100 µM
SF-295 CNS
  TGI: > 100 µM
IGROV1 ovarian
  TGI: > 100 µM
OVCAR-8 ovarian
  TGI: > 100 µM
SN12C renal
  TGI: > 100 µM
CAKI-1 renal
  TGI: > 94 µM
SR leukemia
  TGI: > 100 µM
786-0 renal
  TGI: > 79.4 µM
MCF7 breast
  TGI: 2.72 µM
ACHN renal
  TGI: > 87.3 µM
M14 melanoma
  TGI: > 88.8 µM
T-47D breast
  TGI: > 100 µM
CCRF-CEM leukemia
  TGI: > 100 µM
TK-10 renal
  TGI: > 4.64 µM
KM12 colon
  TGI: > 100 µM
HOP-62 NSCLC
  TGI: 72 µM
SK-MEL-28 melanoma
  TGI: > 100 µM
SK-MEL-5 melanoma
  TGI: > 82.3 µM
HT29 colon
  TGI: > 100 µM
HCT-15 colon
  TGI: > 100 µM
HCT-116 colon
  TGI: > 91 µM
COLO 205 colon
  TGI: > 67.3 µM
EKVX NSCLC
  TGI: > 85.3 µM
SNB-19 CNS
  TGI: > 88.5 µM
NCI/ADR-RES ovarian
  TGI: > 100 µM
UO-31 renal
  TGI: 99.4 µM
A498 renal
  TGI: 66.8 µM
HOP-92 NSCLC
  TGI: > 78 µM
SF-268 CNS
  TGI: > 90.5 µM
RXF 393 renal
  TGI: 52.4 µM
NCI-H460 lung
  TGI: > 54.9 µM
SNB-75 CNS
  TGI: > 79.1 µM
PC-3 prostate
  TGI: > 76.2 µM
MALME-3M melanoma
  TGI: > 100 µM
BT-549 breast
  TGI: > 100 µM
UACC-257 melanoma
  TGI: > 69.9 µM
NCI-H226 lung
  TGI: > 93.6 µM
MDA-MB-435
  TGI: > 100 µM
LOX IMVI melanoma
  TGI: > 100 µM
HCC-2998 colon
  TGI: > 100 µM
K-562 leukemia
  TGI: > 100 µM
OVCAR-5 ovarian
  TGI: > 100 µM
UACC-62 melanoma
  TGI: > 100 µM
MDA-MB-231 breast
  TGI: > 73.6 µM
RPMI-8226 leukemia
  TGI: > 100 µM
SK-OV-3 ovarian
  TGI: > 100 µM
OVCAR-3 ovarian
  TGI: > 68 µM
SK-MEL-2 melanoma
  TGI: > 68.4 µM
SW-620 colon
  TGI: > 100 µM
A549 NSCLC
  TGI: > 100 µM
NCI-H23 lung
  TGI: > 84.2 µM
DU-145 prostate
  TGI: > 92.1 µM
MDA-N
  TGI: > 100 µM
HL-60(TB) leukemia
  TGI: > 100 µM
MOLT-4 leukemia
  TGI: > 100 µM
U251 CNS
  TGI: > 91.7 µM

From PubChem BioAssay (NCI)
